Consider 10 compounds from ChEMBL document CHEMBL1201862, “PubChem BioAssay data set” (2004).

Molecules are shown by their SMILES.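 Compound exposure: 48 hours, 5 concentrations, 96-well plates. GI50 marks 50% less growth.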 Calls of active or inactive are those of the source. No stated cut-off is given here; in the data, active = GI50 up to about 1.1 µM and inactive = higher.

Test systems include IGROV-1; MDA-MB-231; SK-MEL-5; MOLT-4; M14; SNB-75; K562; MDA-N; NCI-H23; HCT-116; SF-539; HOP-62; UACC-257; SNB-19; KM12; LOX IMVI; NCI-H226; OVCAR-5; COLO 205; SK-MEL-2.
What all share (experiment): DTP human tumour cell line panel, 48 h

For orientation: GI50 means the concentration that inhibits growth by half. In the case of `c1ccc(CNc2c3c(nc4ccccc24)CCC3)cc1`, the GI50 in the experiment with IGROV-1 is 15.8 µM (inactive); in the experiment on MDA-MB-231, 12.9 µM (inactive); in the experiment on SK-MEL-5, 11.7 µM (inactive); in the experiment with MOLT-4 it was 13.1 µM (inactive); in the experiment with M14, 13.7 µM (inactive); with SNB-75, 18 µM (inactive). Moreover, the GI50 in the experiment with K562 is 5.58 µM (inactive); in the experiment with MDA-N, 14.7 µM (inactive); with NCI-H23, 16.3 µM (inactive); with HCT-116 it was 9.1 µM (inactive); in the experiment with SF-539, 14.5 µM (inactive); in the experiment with HOP-62 it was 8.97 µM (inactive). Also, the GI50 was 13.6 µM (inactive) with UACC-257; 23 µM (inactive) in the experiment on SNB-19; 15.6 µM (inactive) with KM12; 14 µM (inactive) in the experiment with LOX IMVI; 17.1 µM (inactive) with NCI-H226; 15.5 µM (inactive) in the experiment with OVCAR-5. The GI50 was 10.4 µM (inactive) in the experiment with COLO 205 and 13.8 µM (inactive) with SK-MEL-2.

Take `COC1CCC(OC2CC(C3(C)CCC4(CC(O)C(C)C(C(C)/C=C(\C)C(=O)C(C)CC(C)C(=O)O)O4)O3)OC3(OC(C4OC(O)(CO)C(C)CC4C)CC3C)C2C)OC1C` (stereo not given): the GI50 with IGROV-1 is 1.79 µM (inactive); in the experiment on MDA-MB-231 it was 0.0621 µM (active); with SK-MEL-5 it was < 0.0201 µM (active); in the experiment on MOLT-4 it was < 0.01 µM (active); in the experiment with M14, 0.122 µM (active); with SNB-75, 0.022 µM (active). Moreover, the GI50 was < 0.0155 µM (active) with K562; 0.0811 µM (active) with MDA-N; < 0.0345 µM (active) with NCI-H23; < 0.0279 µM (active) with HCT-116; 0.0453 µM (active) in the experiment on SF-539; < 0.0156 µM (active) in the experiment on HOP-62. Also, the GI50 with UACC-257 is < 0.0199 µM (active); with SNB-19 it was 0.0434 µM (active); in the experiment with KM12, 0.0753 µM (active); in the experiment with LOX IMVI, < 0.0253 µM (active); in the experiment on NCI-H226, 0.378 µM (active); in the experiment with OVCAR-5, 2.99 µM (inactive). Besides, the 50% growth inhibitory concentration (GI50) with COLO 205 is < 0.0154 µM (active); in the experiment with SK-MEL-2 it was 0.161 µM (active).

For `CC12CCC(C(=O)n3c1nc1ccccc13)C(C)(C)O2` (stereo not given), the GI50 is > 100 µM (inactive) in the experiment on IGROV-1; > 100 µM (inactive) in the experiment with MDA-MB-231; 49 µM (inactive) in the experiment on SK-MEL-5; > 100 µM (inactive) with MOLT-4; > 100 µM (inactive) in the experiment with M14; 15.6 µM (inactive) in the experiment on SNB-75. For the same compound, the GI50 in the experiment with K562, in the experiment with MDA-N, in the experiment with NCI-H23, with HCT-116, in the experiment on SF-539 and in the experiment on HOP-62 was > 100 µM (inactive) each time. Further, the GI50 with UACC-257, in the experiment on SNB-19, with KM12, in the experiment with LOX IMVI, with NCI-H226 and with OVCAR-5 was > 100 µM (inactive) each time. The GI50 in the experiment on COLO 205 and in the experiment on SK-MEL-2 was > 100 µM (inactive) each time.

`C[N+](C)(C)CC(=O)N/N=C/c1ccncc1`: the GI50 in the experiment on IGROV-1, in the experiment on MDA-MB-231, in the experiment on SK-MEL-5, in the experiment on MOLT-4, in the experiment with M14 and with SNB-75 was > 100 µM (inactive) throughout. In addition, the GI50 in the experiment with K562, with MDA-N, in the experiment with NCI-H23, in the experiment with HCT-116, in the experiment on SF-539 and in the experiment with HOP-62 was > 100 µM (inactive) in each case. The GI50 in the experiment on UACC-257, in the experiment on SNB-19, in the experiment with KM12, in the experiment on LOX IMVI, in the experiment with NCI-H226 and with OVCAR-5 was > 100 µM (inactive) in each case. Also, the GI50 with COLO 205 and in the experiment on SK-MEL-2 was > 100 µM (inactive) each time.

Regarding `CCN(CC)C(=S)N/N=C/c1cc(OC)ccc1O`, the GI50 was 6.37 µM (inactive) in the experiment with IGROV-1; 30.7 µM (inactive) in the experiment with MDA-MB-231; 6.22 µM (inactive) in the experiment with SK-MEL-5; 2.09 µM (inactive) in the experiment on MOLT-4; 3.69 µM (inactive) in the experiment on M14; 19.4 µM (inactive) with SNB-75. Besides, the GI50 with K562 was 4.52 µM (inactive); in the experiment on MDA-N, 6.68 µM (inactive); in the experiment on NCI-H23 it was 7.98 µM (inactive); in the experiment with HCT-116, 4.86 µM (inactive); with SF-539 it was 6.97 µM (inactive); with HOP-62, 7.5 µM (inactive). Moreover, the GI50 in the experiment with UACC-257 was 7.31 µM (inactive); in the experiment on SNB-19, 8.91 µM (inactive); in the experiment on KM12, 1.7 µM (inactive); with LOX IMVI it was 2.32 µM (inactive); in the experiment with NCI-H226, 3.03 µM (inactive); with OVCAR-5, 57.5 µM (inactive). For the same compound, the GI50 was 3.86 µM (inactive) in the experiment on COLO 205 and 74.1 µM (inactive) with SK-MEL-2.

With `O=C(c1ccccc1)c1cc[n+](C2=C([N-]S(=O)(=O)c3ccccc3)C(=O)c3ccccc3C2=O)cc1`, the GI50 in the experiment on IGROV-1 is 9.35 µM (inactive); in the experiment with MDA-MB-231 it was 12.9 µM (inactive); in the experiment with SK-MEL-5, 2.01 µM (inactive); in the experiment with MOLT-4, 3.05 µM (inactive); with M14 it was 11.1 µM (inactive); in the experiment on SNB-75, 11.6 µM (inactive). Moreover, the GI50 in the experiment with K562 was 2.65 µM (inactive); in the experiment with MDA-N it was 1.86 µM (inactive); in the experiment with NCI-H23 it was 3.12 µM (inactive); with HCT-116, 11.3 µM (inactive); in the experiment on SF-539 it was 12.9 µM (inactive); in the experiment on HOP-62 it was 10.6 µM (inactive). The GI50 with UACC-257 was 11.6 µM (inactive); with SNB-19, 13.8 µM (inactive); in the experiment on KM12 it was 12.6 µM (inactive); with LOX IMVI, 2.42 µM (inactive); in the experiment on NCI-H226, 15.8 µM (inactive); in the experiment with OVCAR-5, 19.2 µM (inactive). In addition, the GI50 in the experiment on COLO 205 is 13.7 µM (inactive); with SK-MEL-2, 3 µM (inactive).

On to `COC(=O)C1=C(C)NC(C)=C(C(=O)OC)C1c1ccc(NO)cc1`, for which the GI50 with IGROV-1 is 16.3 µM (inactive); with MDA-MB-231, 12.8 µM (inactive); in the experiment on SK-MEL-5, 15.4 µM (inactive); in the experiment with MOLT-4, 2.86 µM (inactive); in the experiment with M14 it was 14.6 µM (inactive); in the experiment on SNB-75, 13.2 µM (inactive). Also, the GI50 is 1.86 µM (inactive) with K562; 12.2 µM (inactive) in the experiment with MDA-N; 21.3 µM (inactive) with NCI-H23; 7.59 µM (inactive) with HCT-116; 15.8 µM (inactive) in the experiment on SF-539; 14.6 µM (inactive) in the experiment on HOP-62. The GI50 with UACC-257 is 11 µM (inactive); with SNB-19, 24.6 µM (inactive); in the experiment on KM12, 17.1 µM (inactive); in the experiment with LOX IMVI it was 5.68 µM (inactive); in the experiment with NCI-H226, 17.3 µM (inactive); with OVCAR-5, 15.7 µM (inactive). The GI50 in the experiment on COLO 205 was 12.5 µM (inactive); with SK-MEL-2 it was 17.1 µM (inactive).

In the case of `O=C1C(CN2CCCCC2)CCC1CN1CCCCC1` (stereo not given), the GI50 in the experiment on IGROV-1 was 32.1 µM (inactive); with MDA-MB-231, 20.2 µM (inactive); in the experiment with SK-MEL-5, 43.9 µM (inactive); with MOLT-4 it was 2.22 µM (inactive); in the experiment with M14, 15.5 µM (inactive); in the experiment with SNB-75 it was > 47.8 µM (inactive). The GI50 in the experiment with K562 is 1.2 µM (inactive); with MDA-N, 15 µM (inactive); with NCI-H23, 23.1 µM (inactive); with HCT-116, 24.5 µM (inactive); in the experiment with SF-539, 30.6 µM (inactive); in the experiment with HOP-62 it was > 100 µM (inactive). For the same compound, the GI50 is 30.3 µM (inactive) in the experiment with UACC-257; > 100 µM (inactive) in the experiment on SNB-19; > 54.7 µM (inactive) with KM12; 16 µM (inactive) in the experiment with LOX IMVI; > 96.6 µM (inactive) in the experiment with NCI-H226; 11.4 µM (inactive) in the experiment on OVCAR-5. Also, the GI50 in the experiment on COLO 205 was 14.7 µM (inactive); in the experiment on SK-MEL-2, 30.1 µM (inactive).

`CC(=O)NC1C(OCC(=O)NC(C)C(=O)NC(CCC(=O)NCCCCCNc2ccc([N+](=O)[O-])c3[nH]c4ccccc4c(=O)c23)C(N)=O)C(O)C(CO)OC1(C)OCc1ccccc1` (stereo not given): the GI50 with IGROV-1 was > 50 µM (inactive); in the experiment on MDA-MB-231 it was 12 µM (inactive); with SK-MEL-5 it was > 50 µM (inactive); in the experiment with MOLT-4, 13.3 µM (inactive); in the experiment with M14, > 50 µM (inactive); in the experiment with SNB-75, 24.8 µM (inactive). Further, the GI50 was 4.5 µM (inactive) in the experiment on K562; > 50 µM (inactive) with MDA-N; > 50 µM (inactive) in the experiment with NCI-H23; 19.4 µM (inactive) in the experiment with HCT-116; > 50 µM (inactive) in the experiment with SF-539; 14.8 µM (inactive) in the experiment on HOP-62. Also, the GI50 with UACC-257 is > 50 µM (inactive); in the experiment on SNB-19, 33.3 µM (inactive); with KM12 it was > 50 µM (inactive); with LOX IMVI, > 50 µM (inactive); with NCI-H226 it was > 50 µM (inactive); in the experiment with OVCAR-5, > 50 µM (inactive). In addition, the GI50 in the experiment on COLO 205 and with SK-MEL-2 was > 50 µM (inactive) throughout.

For the compound `CCCNC1=Nc2ccccc2[C@@H]2N(C)c3ccccc3C(C)C[C@]12C` (stereo not given in full), the GI50 is 17.8 µM (inactive) in the experiment on IGROV-1; 15.8 µM (inactive) with MDA-MB-231; 15.6 µM (inactive) in the experiment on SK-MEL-5; 18.1 µM (inactive) in the experiment on MOLT-4; 17.7 µM (inactive) with M14; 15.7 µM (inactive) with SNB-75. In addition, the GI50 was 20 µM (inactive) with K562; 20.5 µM (inactive) with MDA-N; 18.2 µM (inactive) in the experiment with NCI-H23; 14.8 µM (inactive) in the experiment with HCT-116; 16.4 µM (inactive) in the experiment with SF-539; 16.4 µM (inactive) in the experiment on HOP-62. The GI50 in the experiment on UACC-257 was 12.9 µM (inactive); with SNB-19, 18.6 µM (inactive); in the experiment on KM12, 20.3 µM (inactive); in the experiment with LOX IMVI it was 13.3 µM (inactive); in the experiment with NCI-H226, 34 µM (inactive); in the experiment with OVCAR-5, 15.1 µM (inactive). The GI50 in the experiment on COLO 205 is 17.9 µM (inactive); in the experiment with SK-MEL-2 it was 13.2 µM (inactive).
